Experimental findings from publication PMC5712521, “Dendrogenin A drives LXR to trigger lethal autophagy in cancers” (Nature Communications, 2017) are described below.

Data set [1] concerns the target T1, human liver-X-receptor LXRα (Homo sapiens, UniProt Q13133).
T1 construct: expressed in transfected cells; host or cells: HEK293T
T1 sequence (Q13133 1-447): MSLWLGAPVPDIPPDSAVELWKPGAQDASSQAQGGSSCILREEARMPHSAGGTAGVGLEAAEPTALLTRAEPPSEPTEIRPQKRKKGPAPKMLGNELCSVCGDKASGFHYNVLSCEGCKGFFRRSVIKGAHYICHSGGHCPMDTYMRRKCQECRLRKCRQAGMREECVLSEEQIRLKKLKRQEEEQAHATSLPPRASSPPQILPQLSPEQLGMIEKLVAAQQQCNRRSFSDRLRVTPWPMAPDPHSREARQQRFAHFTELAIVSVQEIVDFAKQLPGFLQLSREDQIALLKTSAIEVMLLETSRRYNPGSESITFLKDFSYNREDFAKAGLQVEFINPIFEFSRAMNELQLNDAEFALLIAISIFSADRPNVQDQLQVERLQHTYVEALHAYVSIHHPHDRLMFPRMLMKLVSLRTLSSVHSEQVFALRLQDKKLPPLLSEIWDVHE
T1 sequence (P48443 1-463 partner): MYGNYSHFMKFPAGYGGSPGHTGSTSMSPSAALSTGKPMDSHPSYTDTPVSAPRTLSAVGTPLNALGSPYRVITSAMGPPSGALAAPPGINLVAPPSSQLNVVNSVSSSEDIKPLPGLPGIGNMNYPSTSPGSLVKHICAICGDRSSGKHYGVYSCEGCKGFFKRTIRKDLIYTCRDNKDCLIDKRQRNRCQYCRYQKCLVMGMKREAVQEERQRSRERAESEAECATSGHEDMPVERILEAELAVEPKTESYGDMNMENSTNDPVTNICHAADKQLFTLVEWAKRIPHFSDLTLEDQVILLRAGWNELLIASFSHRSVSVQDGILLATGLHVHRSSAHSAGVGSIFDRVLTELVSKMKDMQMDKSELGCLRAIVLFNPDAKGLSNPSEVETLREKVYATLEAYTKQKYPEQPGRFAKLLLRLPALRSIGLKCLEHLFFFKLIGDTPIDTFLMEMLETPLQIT
Nature of the data set: LXRE-luciferase gene reporter assay in HEK293T, LXRα. The note with it: LXRα; 10 µM 22(R)HC; read-out: IC50, inhibition of LXR-dependent luciferase activity stimulated by 22(R)HC. It is filed as cell-based. The source says:
HEK293T were used for luciferase assays. Cells were transfected using the PolyEthylenImine (PEI) method with human retinoid-X receptor (RXRγ) and human liver-X-receptors (LXRα or LXRβ) with LXRE-Luc; RXRγ and human farnesoid X receptor (FXR) with EcRE-Luc; RXRγ and human steroid and xenobiotic X receptor (SXR) with DR4-Luc; RXRγ and human peroxisome proliferator activated receptors (PPARα, or PPARγ) with PPRE-Luc; RXRγ and human retinoic acid receptor (RARα) with DR1-Luc; human AHR and human ARNT with a DRE-Luc; human vitamin D receptor (VDR) with VDRE-Luc. Cells were transfected with plasmids encoding human glucocorticoid receptor (GR), progesterone receptor (PR), or androgen receptor (AR) with MMTV-Luc; or estrogen receptors (ERα and ERβ) with an ERE-Luc. The day after transfection with the luciferase reporter gene construct, cells were seeded in 12-well plates (50,000 cells per well). After 6 h, cells were then treated with the following ligands dissolved in ethanol: 10 nM estradiol (E2) for ERα and ERβ; 10 nM R1881 for AR; 10 nM R5020 for PR; 10 nM dexamethasone for GR; 10 µM fenofibrate for PPARα; 100 nM rosiglitazone (BRL 49653) for PPARγ; 100 nM cis-retinoic acid (cRA) for RAR; 10 nM dioxine for AHR, 10 µM rifampicine for SXR and 10 µM 22(R) hydroxycholesterol (22(R)HC) for LXRα and LXRβ. At the end of each treatment, cells were lysed in 100 μl lysis buffer (Promega). Luciferase activity was measured using the luciferase assay reagent (Promega), according to the manufacturer’s instructions. Protein concentrations were measured using the Bradford method to normalize luciferase activities. For each condition, luciferase activity was calculated from the data of three independent wells.
A general note: Reporter assays use an easily measured gene product as a stand-in for the process of interest.

The test system of data set [2] is SKMEL-28 tumors. Description: SKMEL-28 melanoma xenograft. It counts as in vivo, mice. The settings on record: human SKMEL-28; i.p. 20 mg/kg/day. The protocol:
Exponentially growing cells were harvested, washed twice in PBS then resuspended in PBS. SKMEL-28, shSKMEL-28 clones (5 × 10^6 cells) and B16F10 (3 × 10^5) cells were injected subcutaneously (s.c.) into the flank of nude mice. HL60, KG1 and shKG1-clones (5 × 10^6) were inoculated s.c. into the flanks of NOD/SCID mice. When tumors were palpable, animals (n = 10–20 mice per group, as indicated) were randomized to receive either DDA (20 mg/kg) intraperitoneally (i.p.) or 40 mg/kg by oral gavage (p.o), once a day, or vehicle solvent for the indicated time. Animals were examined daily and body weights were measured twice a week. In all experiments, tumor volume was determined by direct measurement with a caliper and was calculated using the formula (width^2 × length)/2. At the end of experiments, mice were sacrificed and tumors were excised and divided for intra-tumoral DDA quantification, immunoblotting, or immunohistochemistry analyses.
Background: In xenograft studies the graft and the host belong to different species.

Data set [3] is described as follows: in vivo. Set-up: species or system NSG mice. The note with it: mouse, 20 mg/kg. The protocol:
Administration R oute p.o. i. p. i. v.
T 1/2 distribution (h) - - 0.11*** […]
(§1) Bars represent S.E.M. ( ***P<0.001, **P<0.01, t test).
(§2) (also on this page, place not known: plasma times treatment mice administration plasma times treatment mice administration mg/kg mg/kg Summary pharmacokinetic parameters mice. were measured daily administration mg/kg days. (***P<0.001, mg/kg DDA in plasma (p.o.) (p.o.) DDA in plasma (µM) i.p. i.v. (mg/kg) 20 T1/2 0.1 T1/2 elimination 1.0 T1/2 - Bioavailability (%EP) (µM) 370 Tmax 0.002 marrow 0.01 0.1 1 10 Control DDA DDA level (µM) ***)

A short description of data set [4]: DDA concentrations in spleen and bone marrow. It counts as in vivo, NSG mice. The settings on record: NSG, mouse, ip, daily i.p. 20 mg/kg for 21 days. The protocol: as §1, §2

Molecules are shown by their SMILES. Where two headings read alike, the source gives them in different places.

For `CC(C)CCC[C@@H](C)[C@H]1CC[C@H]2[C@@H]3C[C@@H](NCCc4cnc[nH]4)[C@@]4(O)C[C@@H](O)CC[C@]4(C)[C@H]3CC[C@]12C` [DDA, Dendrogenin A], in data set [1], the IC50 is 362 ± 52 nM. In addition, in data set [2], the tumor growth result is on record as “significantly reduced the growth”. In addition, the Cmax was determined as 6.1 ± 0.95 µM in data set [3] (NSG, ip); 370 µM in data set [3] (NSG, iv); 5.05 µM in data set [3] (NSG, po). Also, the Plasma clearance in data set [3] (NSG, ip) turned out to be 28 mL/min/kg; in data set [3] (NSG, po) it was 26.2 mL/min/kg. Besides, the Tmax in data set [3] (NSG, ip) was 2 h; in data set [3] (NSG, iv) it was 0.002 h; in data set [3] (NSG, po) it was 3 h. The half-life was 19 h in data set [3] (NSG, ip, T1/2 absorption); 0.9 h in data set [3] (NSG, ip, T1/2 elimination); 0.1 h in data set [3] (NSG, iv, T1/2 distribution); 0.6 h in data set [3] (NSG, iv, T1/2 elimination); 43 h in data set [3] (NSG, po, T1/2 absorption); 1 h in data set [3] (NSG, po, T1/2 elimination). In addition, the clearance in data set [3] (NSG, iv) was 27 mL/min/kg. The same compound registered a Bioavailability in data set [3] (iv) of 100 % EP. For the same compound, the concentration at 21 days in data set [4] (bone marrow, read-out: DDA concentration in the bone marrow) stood at 3.48 ± 0.53 µM; in data set [4] (spleen, read-out: DDA concentration in the spleen), 1.32 ± 0.03 µM.

Usually IC50 stands for the concentration at which inhibition is half-maximal. As a reminder, the Cmax is the maximum level reached in the sampled fluid or tissue. The Tmax is the time at which the peak concentration occurs. As a reminder, the half-life is how long it takes for the measured level to halve. A high value points to slow decline. By clearance is commonly meant the rate of elimination divided by the concentration.
